Measurements from paper PMC11109052, “Metabolism characterization and toxicity of N-hydap, a marine candidate drug for lung cancer therapy by LC–MS method” (Natural Products and Bioprospecting, 2024).

Legend:
UGT1A3 = assay: DME activity ex vivo in MLMs and MKMs: UGT1A3 (CDCA-G); set-up: species or system mice
Method: Mice were randomly divided into four groups, with eight animals in each group. The mice received oral pretreatment with N-hydap for 7 days at doses of 2, 5, and 10 mg/kg/day, which were considered as the low dose, medium dose, and high dose, respectively. Correspondingly, the control group received PBS. On the 8th day, the liver and kidneys were removed, and organs from eight mice per group were combined to prepare MLMs and MKMs using the detailed procedures above. Subsequently, we determined the activity of CYP and UGT enzymes by specific substrate metabolized with MLMs (0.5 mg/mL) and MKMs (0.2 mg/mL) in vitro. Specifically, the following selective substrates were used for the respective enzymes: PH (1 μM) for CYP1A2, DIC (1 μM) for CYP2C9, MP (90 μM) for CYP2C19, DM (1 μM) for CYP2D6, CZX (10 μM) for CYP2E1, Tes (1 μM) for CYP3A4, SN38 (1 μM) for UGT1A1, CACD (100 μM) for UGT1A3, Sero (20 μM) for UGT1A6, and Prop (1 μM) for UGT1A9. All substrates were dissolved in methanol or DMSO. […] In the ex vivo experiments, the activity of enzymes was measured by quantifying the production of various metabolites (nM/mg protein/min). […] The measurements were performed using multiple reaction monitoring (MRM) transitions, which are specific mass spectrometry transitions used for quantification. […]

Stability in plasma = format: in vitro ADME
Method: The stability of the KPI solution was examined after storage at 4 °C for 24 h and incubation at 37 °C for 4 h, which was conducted using the QC samples at three concentrations (five samples for each concentration). Stability in plasma and tissue homogenate was assessed by testing samples stored at both 4 °C and room temperature for 24 h.

Cyp1a2 = assay: DME activity ex vivo in MLMs and MKMs: CYP1A2 (APAP from PH); set-up: species or system mice; key to CYP1A2 Enzymatic activity: ↑: up-regulation; ↓: down-regulation; –: no change
Method: (§1) Mice were randomly divided into four groups, with eight animals in each group. The mice received oral pretreatment with N-hydap for 7 days at doses of 2, 5, and 10 mg/kg/day, which were considered as the low dose, medium dose, and high dose, respectively. Correspondingly, the control group received PBS. On the 8th day, the liver and kidneys were removed, and organs from eight mice per group were combined to prepare MLMs and MKMs using the detailed procedures above. Subsequently, we determined the activity of CYP and UGT enzymes by specific substrate metabolized with MLMs (0.5 mg/mL) and MKMs (0.2 mg/mL) in vitro. Specifically, the following selective substrates were used for the respective enzymes: PH (1 μM) for CYP1A2, DIC (1 μM) for CYP2C9, MP (90 μM) for CYP2C19, DM (1 μM) for CYP2D6, CZX (10 μM) for CYP2E1, Tes (1 μM) for CYP3A4, SN38 (1 μM) for UGT1A1, CACD (100 μM) for UGT1A3, Sero (20 μM) for UGT1A6, and Prop (1 μM) for UGT1A9. All substrates were dissolved in methanol or DMSO. The incubation procedure was carried out as mentioned above, and the reaction was terminated with VER (20 ng/mL) in ESI+ mode and CLP (200 ng/mL) in ESI− mode. In the ex vivo experiments, the activity of enzymes was measured by quantifying the production of various metabolites (nM/mg protein/min). The metabolites and their corresponding enzymes are as follows: APAP from PH, 4-OH-DIC from DIC, 4-OH-MP from MP, DXO from DM, 6-OH-CZX from CZX, 6-OH-Tes from Tes, SN38-G from SN38, CACD-G from CACD, Sero-G from Sero, Prop-G from Prop. The measurements were performed using multiple reaction monitoring (MRM) transitions, which are specific mass spectrometry transitions used for quantification. The optimized parameters for each metabolite, such as declustering potential and collision energy, were described in Supplementary Table 1. All experiments were conducted in triplicate, to ensure accuracy and reproducibility.

Ugt1a6a = assay: Real-time PCR mRNA level after 7 days gavage: Ugt1a6a (human homolog UGT1A6); format: in vivo, mice; set-up: key to UGT1A6 mNA expression: ↑: up-regulation; ↓: down-regulation; –: no change
Method: as §1, with “The optimized parameters for each metabolite, such as declustering potential and collision energy, were described in Supplementary Table 1. All experiments were conducted in triplicate, to ensure accuracy and reproducibility.” left out
(§2) Total RNA from liver and kidney samples taken after 7 days of N-hydap gavage was extracted using the Animal Total RNA Isolation Kit (Foregene, Chengdu, Sichuan, China) following the manufacturer’s instructions. The concentrations of total RNA were determined by a nucleic acid concentration tester at 260/280 nm. […]

Cyp2c39 = assay: Real-time PCR mRNA level after 7 days gavage: Cyp2c39 (human homolog CYP2C19); format: in vivo, mice; set-up: key to CYP2C19 mNA expression: ↑: up-regulation; ↓: down-regulation; –: no change
Method: as §1, with “The optimized parameters for each metabolite, such as declustering potential and collision energy, were described in Supplementary Table 1. All experiments were conducted in triplicate, to ensure accuracy and reproducibility.” left out
as §2

CYP3A4 = assay: DME activity ex vivo in MLMs and MKMs: CYP3A4 (6-OH-Tes from Tes); set-up: species or system mice; key to CYP3A4 Enzymatic activity: ↑: up-regulation; ↓: down-regulation; –: no change
Method: as §1

Ugt1a1 = assay: DME activity ex vivo in MLMs and MKMs: UGT1A1 (SN38-G from SN38); set-up: species or system mice; key to UGT1A1 Enzymatic activity: ↑: up-regulation; ↓: down-regulation; –: no change
Method: as §1

Cyp3a11 = assay: Real-time PCR mRNA level after 7 days gavage: Cyp3a11 (human homolog CYP3A4); format: in vivo, mice; set-up: key to CYP3A4 mNA expression: ↑: up-regulation; ↓: down-regulation; –: no change
Method: as §1
Total RNA from liver and kidney samples taken after 7 days of N-hydap gavage was extracted using the Animal Total RNA Isolation Kit (Foregene, Chengdu, Sichuan, China) following the manufacturer’s instructions. The concentrations of total RNA were determined by a nucleic acid concentration tester at 260/280 nm. A HiScript III RT SuperMix for qPCR (+ gDNA wiper) (Vazyme, Nanjing, Jiangsu, China) was used to measure the concentration of the synthesized cDNA. ChamQ SYBR qPCR Master Mix (Vazyme, Nanjing, Jiangsu, China) and detection were performed using a Light Cycler 480 II (ROCHE, Basel, Switzerland). Real-time PCR was used to analyze the relative mRNA levels of Cyp1a2, Cyp2b10, Cyp2c39, Cyp2d22, Cyp2e1, Cyp3a11, Ugt1a1, Ugt1a6a and Ugt1a9 (human homologs: CYP1A2, CYP2B6, CYP2C19, CYP2D6, CYP2E1, CYP3A4, UGT1A1, UGT1A6, and UGT1A9) in the liver, kidneys, and intestines. […]

[1] = MLMs and MKMs, range stated jointly for APAP, SN38-G, 6-OH-Tes and CDCA-G
[2] = mice, 2, 5, 10 mg/kg p.o. 7 days, liver and kidneys

## CC1CCC2C(C=CC(C)C2C(=O)c2c(O)c(C3(O)CCC(O)C4OC43)cn(O)c2=O)C1 (stereo not shown) [N-hydap, N-Hydroxyapiosporamide]
UGT1A3; [1]
  elevation of formation rate of CDCA-G: 12%-331%
UGT1A3; after 7 days of oral administration
  catalytic activity of UGT1A3: significantly increased
Stability in plasma; 200 nM, 4℃ for 24h
  stability, Accuracy (Bias, %): 113.9%
Stability in plasma; 200 nM, room temperature for 24h
  stability, Accuracy (Bias, %): 101.9%
Stability in plasma; 600 nM, 4℃ for 24h
  stability, Accuracy (Bias, %): 87.98%
Stability in plasma; 600 nM, room temperature for 24h
  stability, Accuracy (Bias, %): 105.23%
Stability in plasma; 2500 nM, 4℃ for 24h
  stability, Accuracy (Bias, %): 91.36%
Stability in plasma; 2500 nM, room temperature for 24h
  stability, Accuracy (Bias, %): 108.04%
Cyp1a2; Kidney
  CYP1A2 Enzymatic activity: ↑
Cyp1a2; Liver
  CYP1A2 Enzymatic activity: –
Cyp1a2; MKMs, range stated jointly for APAP, SN38-G, 6-OH-Tes and CDCA-G
  elevation of formation rate of APAP: 12%-331%
Ugt1a6a; Kidney
  UGT1A6 mNA expression: ↑
Ugt1a6a; Liver
  UGT1A6 mNA expression: ↑
Ugt1a6a; [2]
  mRNA levels of Ugt1a6a: modest increase
Cyp2c39; Kidney
  CYP2C19 mNA expression: ↓
Cyp2c39; Liver
  CYP2C19 mNA expression: ↓
Cyp2c39; [2]
  mRNA levels of Cyp2c39: slight reduction
CYP3A4; Kidney
  CYP3A4 Enzymatic activity: ↑
CYP3A4; Liver
  CYP3A4 Enzymatic activity: ↑
CYP3A4; [1]
  elevation of formation rate of 6-OH-Tes: 12%-331%
CYP3A4; Table 4 experimental column
  CYP3A4 inhibitor, experimental results: No
Ugt1a1; Kidney
  UGT1A1 Enzymatic activity: –
Ugt1a1; Liver
  UGT1A1 Enzymatic activity: ↑
Ugt1a1; MLMs, range stated jointly for APAP, SN38-G, 6-OH-Tes and CDCA-G
  elevation of formation rate of SN38-G: 12%-331%
Cyp3a11; Kidney
  CYP3A4 mNA expression: ↑
Cyp3a11; Liver
  CYP3A4 mNA expression: ↑
Cyp3a11; mice, 2, 5, 10 mg/kg p.o. 7 days, intestines
  mRNA levels of Cyp3a11: slight reduction
Cyp3a11; [2]
  increase of mRNA levels of Cyp3a11: 78%-160%
